In the supplement of paper PMC8837787:

What follows are molecules tested on Saccharomyces cerevisiae ABC16-Green Monster (assay: growth inhibition at single dose (up to 150 µM), below the 70% cut-off for dose-response; higher = more potent). Details: 18 h; 30 °C; YPD.
Summary of the method: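 Data are given as percent growth inhibition. Log-phase drug-sensitive S. cerevisiae ABC16-Green Monster cells (OD600 0.1–0.2, 200 µl per well in 96-well plates) were treated in biological duplicates with each library compound at a single 150 µM dose, with untreated cultures alongside, and OD600 was measured at 0 h and after 18 h at 30 °C. Compounds falling below 70% in both replicates were not taken to dose-response.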
For `COc1ccc(C(=O)Nc2nonc2-c2ccc(OC)c(OC)c2)cc1Cl`, the “growth inhibition at single dose” value was < 70%.
`Cc1ccc(NC(=O)c2[nH]nc3c2CCCC3)cc1Cl` was tested, and the “growth inhibition at single dose” value was < 70%.
With `CCC(=O)Nc1ccccc1C(=O)Nc1ccccn1` the “growth inhibition at single dose” value was < 70%.
`O=C(NCc1ccoc1)N1CCN(Cc2ccc3c(c2)OCO3)CC1` was tested, and the “growth inhibition at single dose” value was < 70%.
In the case of `CCOC(=O)c1cnc2ccc(OC)cc2c1NCc1ccccc1`, the “growth inhibition at single dose” value is reported as < 70%.
`O=C(NC1=NCCS1)c1sc2cc(F)ccc2c1Cl` was tested, and the “growth inhibition at single dose” value was < 70%.
For `Cc1sc(NC(=O)c2ccco2)c(C(c2cccnc2)N2CCC(Cc3ccccc3)CC2)c1C` (stereo unspecified), the “growth inhibition at single dose” value was < 70%.
For `O=C(Nc1nc(-c2ccccn2)cs1)c1ccc(-n2cncn2)cc1`, the “growth inhibition at single dose” value was < 70%.
With `CN(Cc1ccccc1)S(=O)(=O)c1ccc(Cl)c(C(=O)Nc2nnc(C(F)(F)F)[nH]2)c1` the “growth inhibition at single dose” value was < 70%.
For `CC(NCc1ccccc1)c1cc(Cl)ccc1O` (stereo unspecified), the “growth inhibition at single dose” value was < 70%.
For `Cc1ccc(CSCc2ccc(C(=O)NC3CC3)o2)cc1`, the “growth inhibition at single dose” value was < 70%.
With `CN(C)CCCNCc1ccc(-c2ccc(F)c(Cl)c2)o1` the “growth inhibition at single dose” value was < 70%.
With `CC(=O)Nc1ccc(NC(=O)c2cc(-c3cc(Cl)ccc3O)[nH]n2)cc1` the “growth inhibition at single dose” value was < 70%.
For `O=C(NCc1ccccc1)/C(=C/c1ccc(OCc2ccccc2)cc1)c1nc2ccccc2[nH]1`, the “growth inhibition at single dose” value was < 70%.
For `Cc1ccc(-n2c(C)cc(C(=O)COC(=O)c3ccc[nH]c3=O)c2C)cc1C`, the “growth inhibition at single dose” value was < 70%.
`FC(F)(F)c1nc(N2CCN(c3ccncc3)CC2)c2ccccc2n1` was tested, and the “growth inhibition at single dose” value was < 70%.
`COc1ccc(C(=O)Nc2ccc(Cl)cc2C(=O)Nc2ccncc2)cc1` was tested, and the “growth inhibition at single dose” value was < 70%.
In the case of `COc1cc2c(cc1NC(=O)C(C)N1CCC(C(N)=O)CC1)oc1ccccc12` (stereo unspecified), the “growth inhibition at single dose” value is reported as < 70%.
In the case of `CCCCCCc1cc2cc(-c3csc(C=Cc4ccccc4)n3)c(=O)oc2cc1O`, the “growth inhibition at single dose” value is reported as < 70%.
With `CC(=O)c1sc(NC(=O)Nc2ccc(C)cc2C)nc1C` the “growth inhibition at single dose” value was < 70%.
`C=C(C)COc1ccc(-c2onc(C)c2-c2ccc(OC)c(OC)c2)c(O)c1` was tested, and the “growth inhibition at single dose” value was < 70%.
With `COc1cccc(-c2nc3c(N4CCCC4)cccc3n2CC2CCCN2)n1` (stereo unspecified) the “growth inhibition at single dose” value was < 70%.
For `COc1ccc(CCN2CCC(CN(C)Cc3cnn(-c4ccccc4)c3)CC2)cc1`, the “growth inhibition at single dose” value was < 70%.
For `C[C@H]1c2cccc(O)c2C(=O)C2=C(O)[C@]3(O)C(=O)C(C(N)=O)=C(O)[C@@H](N(C)C)[C@@H]3[C@@H](O)[C@@H]21`, the “growth inhibition at single dose” value was < 70%.
For `CCOC(=O)c1c[nH]c2c(F)cc(F)cc2c1=O`, the “growth inhibition at single dose” value was < 70%.
With `Cc1ccc(O)c(C(=O)NCCC(C)C)c1` the “growth inhibition at single dose” value was < 70%.
In the case of `Cc1ccc(CN2CCC(C(=O)Nc3ccc(-c4cc5ccccc5[nH]4)cc3)CC2)o1`, the “growth inhibition at single dose” value is reported as < 70%.
For `Cc1ccnc(NC(=O)C2CC(=O)N(c3ccc(C)c(C)c3)C2)c1` (stereo unspecified), the “growth inhibition at single dose” value was < 70%.
In the case of `CCN(CC)CCCCCCNc1cc(OC)cc2c(C)ccnc12`, the “growth inhibition at single dose” value is reported as < 70%.
In the case of `COC(=O)c1cc(C(=O)OC)cc(-n2c(C)cc(C(=O)Cn3ncc(Cl)c(Cl)c3=O)c2C)c1`, the “growth inhibition at single dose” value is reported as < 70%.
For `COc1ccc(Nc2nc(NN=Cc3ccc(O)cc3)nc(Nc3ccc([N+](=O)[O-])cc3)n2)cc1`, the “growth inhibition at single dose” value was < 70%.
In the case of `O=C(Nc1ccc(-c2nc3cc(NC(=O)c4ccc(Cl)cc4)ccc3[nH]2)cc1)c1ccc(Cl)cc1`, the “growth inhibition at single dose” value is reported as < 70%.
`Cc1sc2ncnc(Sc3nc4ccccc4[nH]3)c2c1C` was tested, and the “growth inhibition at single dose” value was < 70%.
For `C[C@H]1COc2c(N3CCN(C)CC3)c(F)cc3c(=O)c(C(=O)O)cn1c23`, the “growth inhibition at single dose” value was < 70%.
`COC(=O)Cc1[nH]n(-c2nc3ccccc3s2)c(=O)c1C(C)=NCCO` was tested, and the “growth inhibition at single dose” value was < 70%.
`CCOc1cccc(C(=O)Nc2ccc(-c3nc4ccccc4[nH]3)cc2)c1` was tested, and the “growth inhibition at single dose” value was < 70%.
With `CNC(=O)c1ccc2n1CCN(C(=O)OCc1ccccc1)C2C` (stereo unspecified) the “growth inhibition at single dose” value was < 70%.
With `COc1ccc(S(=O)(=O)Nc2ccc(CN3CCN(C(=O)c4cccc(C#N)c4)CC3)cc2)cc1` the “growth inhibition at single dose” value was < 70%.
In the case of `CC(NC(C)c1ccc(Cl)cc1)C(=O)Nc1sccc1C(N)=O` (stereo unspecified), the “growth inhibition at single dose” value is reported as < 70%.
For `COCCn1c(C)nc2ccccc2c1=O`, the “growth inhibition at single dose” value was < 70%.
In the case of `Cc1cc(C=C2SC(=Nc3ccccc3)N(C3CCCC3)C2=O)c(C)n1-c1ccc(Cl)cc1`, the “growth inhibition at single dose” value is reported as < 70%.
`Cc1[nH]c(-c2ccc(F)cc2)cc1C(=O)NC1CCN(Cc2ccccc2)CC1` was tested, and the “growth inhibition at single dose” value was < 70%.
For `Cc1cc(C(=O)Cn2nnc3ccccc3c2=O)c(C)n1-c1ccccc1`, the “growth inhibition at single dose” value was < 70%.
In the case of `O=C(Nc1ccc(-c2nc3ccccc3[nH]2)cc1)c1ccc(Cl)c(Cl)c1`, the “growth inhibition at single dose” value is reported as < 70%.
For `CCOc1ccc2cc(-c3nn(CC4CCN(C)CC4)c4ncnc(N)c34)ccc2c1`, the “growth inhibition at single dose” value was < 70%.
For `CC(C)(C)CN1C(=O)C(c2ccccc2)(c2ccccc2)N=C1N`, the “growth inhibition at single dose” value was < 70%.
With `CCCc1c(C)nc2ccc(Br)cc2c1O` the “growth inhibition at single dose” value was < 70%.
For `COc1ccc(-n2ccnc2SCC(=O)Nc2cc(C)ccc2C)c(OC)c1`, the “growth inhibition at single dose” value was < 70%.
With `COc1ccc(OC)c(C(C)Nc2ncnc3sccc23)c1` (stereo unspecified) the “growth inhibition at single dose” value was < 70%.
`COc1cccc(C2(C)Nc3ccccc3-c3nc4ccccc4n32)c1` (stereo unspecified) was tested, and the “growth inhibition at single dose” value was < 70%.
In the case of `CCC(C)NC(=O)c1ccc(NC(=O)C2(c3ccccc3)CCCC2)cc1` (stereo unspecified), the “growth inhibition at single dose” value is reported as < 70%.
`COc1cc2c(cc1OC)C1=NNC(=O)C1=NC(C)(C)C2` was tested, and the “growth inhibition at single dose” value was < 70%.
For `Cc1cccc(-c2nnc(Sc3nc(C)nc4sc5c(c34)CCCC5)n2CC(N)=O)c1`, the “growth inhibition at single dose” value was < 70%.
`CC(=O)c1c(C)[nH]c(C(=O)Nc2ccc(Oc3ccccc3Cl)cc2)c1C` was tested, and the “growth inhibition at single dose” value was < 70%.
`CCOc1cccc(C2Nc3ccccc3C(=O)N2C2CC2)c1O` (stereo unspecified) was tested, and the “growth inhibition at single dose” value was < 70%.
With `Cc1cc(N2CCN(C)CC2)n2ncc(-c3ccc(F)cc3)c2n1` the “growth inhibition at single dose” value was < 70%.
For `CCN(CC)CCN1COc2c(cc(Cl)c3cccnc23)C1`, the “growth inhibition at single dose” value was < 70%.
For `Cc1ccc(NC(=O)c2cnn(C(C)(C)C)c2C)cc1F`, the “growth inhibition at single dose” value was < 70%.
In the case of `CS(=O)(=O)Cc1nc2ccccc2oc1=O`, the “growth inhibition at single dose” value is reported as < 70%.
With `COc1ccc(C(=N)N)cc1-c1cn(-c2ccc(C(=N)N)cc2)nn1` the “growth inhibition at single dose” value was < 70%.
With `CSc1nc2ccc(NC(=O)c3cn4ccccc4n3)cc2s1` the “growth inhibition at single dose” value was < 70%.
For `COc1ccccc1-c1noc(-c2cc3c(s2)CCCCC3)n1`, the “growth inhibition at single dose” value was < 70%.
For `Cc1cccc(Nc2nc(N)c3ccccc3n2)c1`, the “growth inhibition at single dose” value was < 70%.
With `Cc1ccc2cc3c(N)c4c(C)ccc(C)c4nc3nc2c1` the “growth inhibition at single dose” value was < 70%.
In the case of `COc1ccc(CCN2CCC(NCc3cccc(N(C)C)c3)CC2)cc1`, the “growth inhibition at single dose” value is reported as < 70%.
In the case of `COc1ccc2nccc(NC(=O)C3CCN(CCc4ccc(Cl)cc4)CC3)c2n1`, the “growth inhibition at single dose” value is reported as < 70%.
In the case of `CN(C)CCNc1cc(-c2ccccc2)nc2ccccc12`, the “growth inhibition at single dose” value is reported as < 70%.
For `Cc1cc(N)c(N)cc1C`, the “growth inhibition at single dose” value was < 70%.
In the case of `c1ccc(Oc2ccc(-c3cc(N4CCNCC4)[nH]n3)cc2)cc1`, the “growth inhibition at single dose” value is reported as < 70%.
In the case of `O=C(Nc1ccc(F)c(Cl)c1)Nc1ccc(Cl)c(Cl)c1`, the “growth inhibition at single dose” value is reported as < 70%.
For `COc1ccc2c(=O)cc(C(Cl)(Cl)Cl)oc2c1`, the “growth inhibition at single dose” value was < 70%.
